Measurements reported in patent US11136409B2, “Compositions and methods for identification, assessment, prevention, and treatment of AML using USP10 biomarkers and modulators” (Dana-Farber Cancer Institute, Inc., priority 2016, dated 2021).
Where two headings read alike, the source gives them in different places.

Assays:
HEL = experiment: Anti-proliferation, 24 hr treatment (CellTiter-Glo); format: cell-based, human; conditions: read-out: Anti-proliferation IC50
From the text: (§1) Nomo-1, P31-FUJ, and NB4 were obtained from Dr. Gary Gilliland. MV4, 11 cells were obtained from Dr. Anthony Letai. Hel, K562, THP, U937, TF-1 and K052 cells were purchased from the American Type Culture Collection (ATCC) (Manassas, Va., USA). […] Cell lines were submitted for cell line authentication and were authenticated within 6 months of manuscript preparation through cell line short tandem repeat (STR) profiling (DDC Medical, Fairfield, Ohio and Molecular Diagnostics Laboratory, Dana Farber Cancer Institute). […] PBMCs were generously provided by Dr. Steven Treon and Dr. Guang Yang.
(§2) The CellTiter-Glo® assay (Promega, Madison, Wis.) was used for proliferation studies and carried out according to manufacturer instructions. Cell viability is reported as percentage of control (untreated) cells, and error bars represent the standard error of the mean for each data point.

K052 = experiment: as above; format: cell-based, human; conditions: read-out: Anti-proliferation IC50
From the text: as §1, §2

K562 = experiment: as above; format: cell-based, human; conditions: read-out: Anti-proliferation IC50
From the text: as §1, §2

MOLM13-luc+ = experiment: as above; format: cell-based, human; conditions: read-out: Anti-proliferation IC50
From the text: as §1, §2

MOLM14 = experiment: as above; format: cell-based, human; conditions: read-out: Anti-proliferation IC50
From the text: as §1, §2

MV4,11 = experiment: as above; format: cell-based, human; conditions: read-out: Anti-proliferation IC50
From the text: as §1, §2

NB4-luc+ = experiment: as above; format: cell-based, human; conditions: read-out: Anti-proliferation IC50
From the text: as §1, §2

NOMO-1 = experiment: as above; format: cell-based, human; conditions: read-out: Anti-proliferation IC50
From the text: as §1, §2

OCI-AML5 = experiment: as above; format: cell-based, human; conditions: read-out: Anti-proliferation IC50
From the text: as §1, §2

TF-1 = experiment: as above; format: cell-based, human; conditions: read-out: Anti-proliferation IC50
From the text: as §1, §2

PBMCs = experiment: Treatment of PBMCs from healthy donors with USP10-targeting inhibitors; format: cell-based, human
From the text: as §1, §2

[1] = test system: AML primagraft (D835Y+, FLT3-ITD+) cells; experiment: Treatment of mutant FLT3-expressing AML primagraft cells ex vivo; format: cell-based, human; conditions: read-out: IC50 (+/−S.D.) AML primagraft (D835Y+, FLT3-ITD+)
Description: All animal studies were performed according to protocols approved by the Dana-Farber Cancer Institute's Institutional Animal Care and Use Committee. […] Mice were sacrificed on day 21 of treatment. Bone marrow was flushed from mouse femurs, and spleens and livers were dissected and preserved first in formalin, followed 24 hours later by preservation in 70% ethanol. […] All AML primagraft samples used in the studies described herein were obtained through the Public Repository of Xenografts (proxe.org).
as §2

USP7 = USP7 (Homo sapiens, UniProt Q93009); experiment: USP7 IC50 of HBX19818 analogs (Table 9); format: biochemical; conditions: read-out: USP7 IC50 +/− SEM
[2] = biological target: T1, human USP10 (residues 376-798) (Homo sapiens, UniProt Q14694); experiment: In vitro USP10 activity assay (Ubiquitin-AMC); format: biochemical; conditions: biochemical assay, FIG. 13B
T1 construct: A construct of human USP10 covering residues 376-798 in the pET28a vector; His-tag (cleaved yes); made in house; host or cells: E. coli BL21 (DE3)
Description: Protein expression and purification. A construct of human USP10 covering residues 376-798 in the pET28a vector was over-expressed in E. coli BL21 (DE3) in TB medium in the presence of […] of kanamycin. Cells were grown at 37° C. to an OD of 0.8, cooled to 17° C., induced with 500 μM isopropyl-1-thio-D-galactopyranoside, incubated overnight at 17° C., collected by centrifugation, and stored at −80° C. Cell pellets were sonicated in buffer A (50 mM HEPES (pH 7.5), 300 mM NaCl, 10% glycerol, 10 mM Imidazole, and 3 mM BME) and the resulting lysate was centrifuged at 30,000×g for 30 min. Ni-NTA beads (Qiagen) were mixed with lysate supernatant for 30 min and washed with buffer A. Beads were transferred to an FPLC-compatible column and the bound protein was washed with 15% buffer B (50 mM HEPES (pH 7.5), 300 mM NaCl, 10% glycerol, 300 mM Imidazole, and 3 mM BME) and eluted with 100% buffer B. Thrombin was added to the eluted protein and incubated at 4° C. overnight. The sample was then passed through a HiPrep 26/10 desalting column (GE Healthcare) pre-equilibrated with buffer A without imidazole, and the eluted protein was subjected to a second Ni-NTA step to remove His-tag and Thrombin. The eluent was concentrated and passed through a Superdex® 200 10/300GL column (GE Healthcare) in a buffer containing 20 mM HEPES (pH 7.5), 150 mM NaCl, and 1 mM DTT. Fractions were pooled, concentrated to 20 mg/ml, and frozen at −80° C.
In vitro USP10 activity assay. Recombinant USP10, residues 376-798, was tested for its activity in a Ubiquitin-AMC assay in presence or absence of inhibitors. For this assay, 10 nM USP10 were pre-incubated with different concentrations of inhibitors or DMSO as a control in 50 mM HEPES pH7.6, 0.5 mM EDTA, 11 uM ovalbumin, and 5 mM DTT. The reaction was incubated for 6 hours at room temperature prior to the addition of 2 uM Ubiquitin-AMC (Boston Biochem) substrate. The initial rate of the reaction was measured by collecting fluorescence data at one minute intervals over 30-minute period using a CLARIOstar® fluorescence plate reader at excitation and emission wavelength of 345 and 445 nm, respectively. The calculated initial rate values were plotted against inhibitor concentrations to determine IC50 values.

[3] = 24 hr treatment, HEL (FLT3 wt or null)
[4] = 24 hr treatment, K052 (FLT3 wt or null)
[5] = 24 hr treatment, K562 (FLT3 wt or null)
[6] = 24 hr treatment, MOLM13-luc+ (FLT3-ITD)
[7] = 24 hr treatment, MOLM14 (FLT3-ITD)
[8] = 24 hr treatment, MV4,11 (FLT3-ITD)
[9] = 24 hr treatment, NB4-luc+ (FLT3 wt or null)
[10] = 24 hr treatment, NOMO-1 (FLT3 wt or null)
[11] = 24 hr treatment, OCI-AML5 (FLT3 wt or null)
[12] = 24 hr treatment, TF-1 (FLT3 null)
[13] = 24 hr assay, PBMC#1, read-out: IC50 (+/−S.D.) PBMC#1
[14] = 24 hr assay, PBMC#2, read-out: IC50 (+/−S.D.) PBMC#2
[15] = 72 hr assay, PBMC#1, read-out: IC50 (+/−S.D.) PBMC#1
[16] = 72 hr assay, PBMC#2, read-out: IC50 (+/−S.D.) PBMC#2

USP7, sequence (Q93009 whole entry, the tested form may be a part): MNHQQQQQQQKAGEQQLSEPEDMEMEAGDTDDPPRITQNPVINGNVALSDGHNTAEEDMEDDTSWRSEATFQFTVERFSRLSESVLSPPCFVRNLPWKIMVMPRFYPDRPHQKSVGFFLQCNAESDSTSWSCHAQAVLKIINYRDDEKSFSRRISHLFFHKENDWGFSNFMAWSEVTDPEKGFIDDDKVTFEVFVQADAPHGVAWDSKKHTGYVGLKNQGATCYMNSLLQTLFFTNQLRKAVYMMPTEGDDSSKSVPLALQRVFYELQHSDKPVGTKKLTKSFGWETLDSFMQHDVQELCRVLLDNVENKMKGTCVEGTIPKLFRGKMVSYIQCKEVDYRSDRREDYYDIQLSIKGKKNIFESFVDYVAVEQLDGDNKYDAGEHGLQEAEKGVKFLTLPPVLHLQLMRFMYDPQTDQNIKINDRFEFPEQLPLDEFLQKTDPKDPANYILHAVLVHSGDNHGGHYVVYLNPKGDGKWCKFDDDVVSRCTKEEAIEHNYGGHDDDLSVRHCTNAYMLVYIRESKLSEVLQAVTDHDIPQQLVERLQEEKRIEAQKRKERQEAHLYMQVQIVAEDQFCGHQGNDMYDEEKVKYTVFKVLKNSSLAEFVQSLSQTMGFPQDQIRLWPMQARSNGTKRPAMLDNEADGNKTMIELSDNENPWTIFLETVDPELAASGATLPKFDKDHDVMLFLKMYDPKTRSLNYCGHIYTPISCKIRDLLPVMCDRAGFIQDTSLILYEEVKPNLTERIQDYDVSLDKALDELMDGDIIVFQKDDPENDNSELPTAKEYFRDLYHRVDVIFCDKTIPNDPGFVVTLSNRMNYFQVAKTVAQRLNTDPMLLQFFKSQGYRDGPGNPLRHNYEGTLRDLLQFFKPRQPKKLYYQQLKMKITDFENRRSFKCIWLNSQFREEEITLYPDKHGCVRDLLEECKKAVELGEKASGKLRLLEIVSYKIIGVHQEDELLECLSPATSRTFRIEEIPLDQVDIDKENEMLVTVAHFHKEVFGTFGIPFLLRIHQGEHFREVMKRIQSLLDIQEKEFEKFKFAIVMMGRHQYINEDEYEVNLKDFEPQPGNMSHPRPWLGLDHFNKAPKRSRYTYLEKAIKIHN
T1 sequence (Q14694 376-798): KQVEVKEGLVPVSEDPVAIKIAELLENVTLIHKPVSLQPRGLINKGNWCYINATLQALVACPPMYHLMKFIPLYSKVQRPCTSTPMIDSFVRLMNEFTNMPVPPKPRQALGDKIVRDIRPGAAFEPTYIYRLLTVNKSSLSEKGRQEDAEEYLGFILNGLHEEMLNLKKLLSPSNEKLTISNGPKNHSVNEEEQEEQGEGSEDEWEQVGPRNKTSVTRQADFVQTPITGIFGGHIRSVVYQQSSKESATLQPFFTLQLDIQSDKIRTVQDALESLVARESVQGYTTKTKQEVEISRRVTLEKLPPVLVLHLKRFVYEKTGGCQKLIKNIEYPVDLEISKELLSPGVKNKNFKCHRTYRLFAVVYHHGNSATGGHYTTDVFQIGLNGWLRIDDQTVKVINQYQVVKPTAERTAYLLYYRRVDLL

Compound | IC50 (HEL; [3]) [µM] | IC50 (K052; [4]) [µM] | IC50 (K562; [5]) [µM] | IC50 (MOLM13-luc+; [6]) [µM] | IC50 (MOLM14; [7]) [µM] | IC50 (MV4,11; [8]) [µM] | IC50 (NB4-luc+; [9]) [µM] | IC50 (NOMO-1; [10]) [µM] | IC50 (OCI-AML5; [11]) [µM] | IC50 (TF-1; [12]) [µM] | IC50 (PBMCs; [13]) [µM] | IC50 (PBMCs; [14]) [µM] | IC50 (PBMCs; [15]) [µM] | IC50 (PBMCs; [16]) [µM] | IC50 ([1]; 24 hr assay) [µM] | IC50 ([1]; 72 hr assay) [µM] | IC50 (USP7) [µM] | USP10 inhibition compared with HBX19818 [2] | other results
CCCN(CCC)CCCNC(=O)c1ccc2c(Cl)c3c(nc2c1)CCCC3 [C598-0466] | 16.8 | 11.6 | 13.3 | 2.9 | 5.2 | 4.1 | 10.2 | 8.3 | 8.6 | 10.7 | 10.5 | 10.5 | 4.8 | 3.1 | 4.1 | 0.6 | 3.6 | more potent | –
O=C(NCCCN1CCN(Cc2ccccc2)CC1)c1ccc2nc3c(c(Cl)c2c1)CCCC3 [C598-0563] | 19.6 | 14.5 | 15.9 | 8.8 | 9.9 | 9.7 | 13.6 | 10.7 | 17 | 10 | 22.9 | 44.4 | 15.6 | 7.9 | 12.2 | 2.8 | 50 | comparably to HBX19818 | –
CCN(CCCNC(=O)c1ccc2nc3c(c(Cl)c2c1)CCC3)Cc1ccccc1 [C673-0105] | 34.4 | 23.5 | 23.7 | 7.9 | 10.1 | 7.5 | 24.5 | 12.7 | 19.5 | 12.5 | 17.2 | 17.4 | 10 | 7.3 | 8.5 | 3.1 | > 100 | comparably to HBX19818 | –
CN(CCCNC(=O)c1ccc2nc3c(c(Cl)c2c1)CCCC3)Cc1ccccc1 [HBX19818, reference compound] | – | – | – | – | – | – | – | – | – | – | – | – | – | – | – | – | – | – | IC50 (HEL; Homo sapiens, HEL, 24 h): 25.7 µM; IC50 (K052; Homo sapiens, K052, 24 h): 16.6 µM; IC50 (K562; Homo sapiens, K562, 24 h): 18.5 µM; IC50 (MOLM13-luc+; Homo sapiens, 24 h): 4.4 µM; IC50 (MOLM14; Homo sapiens, MOLM-14, 24 h): 9.6 µM; IC50 (MV4,11; Homo sapiens, MV4-11, 24 h): 8.1 µM; IC50 (NB4-luc+; Homo sapiens, 24 h): 16.4 µM; IC50 (NOMO-1; Homo sapiens, NOMO-1, 24 h): 16.1 µM; IC50 (OCI-AML5; Homo sapiens, OCI-AML-5, 24 h): 17.9 µM; IC50 (TF-1; Homo sapiens, TF-1, 24 h): 12.8 µM; IC50 (PBMCs; Homo sapiens, PBMC, 24 h, read-out: IC50 (+/−S.D.) PBMC#1): 25.5 µM; IC50 (PBMCs; Homo sapiens, PBMC, 24 h, read-out: IC50 (+/−S.D.) PBMC#2): 24.1 µM; IC50 (PBMCs; Homo sapiens, PBMC, 72 h, read-out: IC50 (+/−S.D.) PBMC#1): 12.4 µM; IC50 (PBMCs; Homo sapiens, PBMC, 72 h, read-out: IC50 (+/−S.D.) PBMC#2): 7.3 µM; IC50 ([1]; Homo sapiens, 24 hr assay): 9.8 µM; IC50 ([1]; Homo sapiens, 72 hr assay): 1.9 µM
